Laboratory results published in the CombiSolv-Exp solvation set (Vermeire and Green 2021).

Test: solvent given as SMILES

N
Settings | solvation free energy, 298 K [kcal/mol]
in CC(C)=O | -2.02
in CC(C)CO | -2.54
in CC(C)O | -2.37
in CCC(C)=O | -1.94
in CCCCCCC | -1.27
in CCCCO | -2.4
in CCCO | -2.4
in CCO | -2.65
in CN1CCCC1=O | -1.85
in CO | -3.08
in ClC(Cl)Cl | -2.41
in Clc1ccccc1 | -1.36
in O | -4.34

Cc1ccccc1N
Settings | solvation free energy, 298 K [kcal/mol]
in CC(C)CC(C)(C)C | -6.37
in CCCCCC | -6.13
in CCCCCCC | -6.22
in CCCCCCCC | -6.34
in CCCCCCCCCC | -6.64
in Cc1cccc(C)c1 | -7.32
in Cc1ccccc1C | -7.39
in O | -5.55

CC(=O)CC(=O)c1cccs1
Settings | solvation free energy, 298 K [kcal/mol]
in O | -6.08

Nc1ncnc2c1ncn2C1CC(O)C(CO)O1 (centres undefined)
Settings | solvation free energy, 298 K [kcal/mol]
in C=CCCCCCCC=C | -16.6
in C=CCCCCCCCCCCCCCC | -15.8
in O | -24.3

O=C(O)c1ccc(CO)cc1
Settings | solvation free energy, 298 K [kcal/mol]
in C=CCCCCCCCCCCCCCC | -8.43
in O | -13.3

Clc1cc(-c2ccccc2)c(Cl)c(Cl)c1Cl
Settings | solvation free energy, 298 K [kcal/mol]
in CCCCCCCCO | -11.7
in O | -3.29

CC(C)=CCCC(C)C1C=CC(C)=CC1 (centres undefined)
Settings | solvation free energy, 298 K [kcal/mol]
in O | -0.11

C=CC(=C)C
Settings | solvation free energy, 298 K [kcal/mol]
in BrC(Br)C(Br)Br | -2.83
in Brc1cccc2ccccc12 | -2.82
in C1=Cc2ccccc2C1 | -3.1
in CC1COC(=O)O1 | -2.45
in CC(=O)N(C)C | -2.89
in CC(=O)OCc1ccccc1 | -2.93
in CC(=O)c1ccccc1 | -2.93
in CC(C)CC(C)(C)C | -3.16
in CCC(C)=O | -3.27
in CCCCC#N | -3.06
in CCCCCC#N | -3.11
in CCCCCCC | -3.22
in CCCCCCCC | -3.18
in CCCCCCCCO | -2.81
in CCCCO | -2.89
in CCNC(C)=O | -2.81
in CCOC(C)=O | -3.29
in CN1CCCC1=O | -2.89
in CN(C)C=O | -2.88
in CN(C)P(=O)(N(C)C)N(C)C | -2.89
in CNC(C)=O | -2.74
in CNC=O | -2.44
in CS(C)=O | -2.38
in Cc1cccc2ccccc12 | -2.94
in Cc1cccc(O)c1 | -2.72
in ClC(Cl)(Cl)Cl | -3.49
in ClC(Cl)C(Cl)Cl | -3.21
in ClCCCl | -3.3
in Clc1cccc2ccccc12 | -2.81
in N#CCCCC#N | -2.06
in N#CCCCCC#N | -2.35
in N#CCc1ccccc1 | -2.7
in N#Cc1ccccc1 | -3
in NCc1ccccc1 | -2.85
in Nc1ccccc1 | -2.56
in O | 0.68
in O=C1CCCCC1 | -3.22
in O=C(O)C(Cl)Cl | -2.77
in OCCO | -1.12
in OCc1ccccc1 | -2.56
in c1ccc2ncccc2c1 | -2.82

CC(C)COC=O
Settings | solvation free energy, 298 K [kcal/mol]
in O | -2.22

FCC(F)(F)F
Settings | solvation free energy, 298 K [kcal/mol]
in CCCCCCCC(=O)OCC(COC(=O)CCCCCCC)OC(=O)CCCCCCC | -1.21
in CCCCCCCCC | -0.76
in CCCCCCCCO | -0.89
in CN1CCCC1=O | -1.96
in CN(C)C=O | -2.21
in O | 0.56

CCCc1ccc(O)c(OC)c1
Settings | solvation free energy, 298 K [kcal/mol]
in O | -5.26
